US5691382A, “Inhibition of TNF production with matrix metaloproteinase inhibitors” (British Biotech Pharmaceuticals Limited, priority 1992, dated 1997)

Assays:
[1] = system: TNFα release from human monocytic cell line, U937; assay: inhibition of TNFα release from PMA-stimulated human monocytic cell line U937 (18 h, ELISA); format: cell-based; conditions: U-937, PMA 50 nM, U937 cells, 18 hours at 37° C., reported by Group A/B/C, read-out: IC50 (concentration which inhibits the release of TNFα by 50% relative to the control culture)
Description: Metalloproteinase inhibitors can prevent the release of TNF from PMA-stimulated human monocytic cell line U937.
The ability of representative compounds, which are inhibitors of metalloproteinases, to inhibit the release of TNF was investigated. The assay is based on the ability of phorbol myristate acetate (PMA) to stimulate the release of TNFα from a human monocytic cell line, U937.
U937 cells cultured in RPMI 1640 medium +5% foetal calf serum were centrifuged at 1000×g for 5 minutes and then resuspended in medium at 2×10^6 /ml. 1 ml of cell suspension was aliquoted into individual wells of 24-well plates. Test compounds were dissolved in dimethyl sulphoxide (DMSO) at a stock concentration of 100 mM, then diluted to 50×the final required concentration with RPMI 1640 medium. 20 μl of the diluted compounds were added to U937 cells in duplicate wells. TNFα release was stimulated by addition of PMA to the cells at a final concentration of 50 nM. Appropriate control cultures were set up in duplicate. The plates were incubated for 18 hours at 37° C., 5% CO2, then centrifuged at 1000 ×g for 5 minutes. A specific ELISA for TNFα obtained from British Bio-technology Products Limited, Abingdon, England was used to measure TNFα levels in the culture supernatants according to the protocol supplied.
The average concentration of test compound which inhibits the release of TNFα by 50% relative to the control culture was assessed as greater than 90 μM, in the range 10 μM-90 μM, or less than 10 μM.

TNF α [2] = assay: inhibition of endotoxin (LPS) induced TNF production in vivo in anaesthetised rats; set-up: species or system Male CD rats; conditions: rat, 10 mg.kg^-1 intraperitoneally, 1 hour prior to LPS
Description: Test compounds were assessed for their ability to inhibit release of endotoxin induced TNF production in vivo.
(§1) Male CD rats (Charles River, UK) weighing between 300 g-400 g were anaesthetised with an intra-peritoneal injection of a mixture of 62.5 mg.kg^-1 thiopental and 22.5 mg.kg^-1 sodium pentobarbitone (Thiopental, Sigma Chemical Co., UK; Sodium pentobarbitone (Sagatal), May and Baker., UK). The trachea was exposed and cannulated to allow spontaneous respiration through a patent airway. The left jugular vein was exposed and cannulated for the administration of LPS. The right femoral artery was exposed and cannulated for withdrawal of blood samples. Blood samples (1 ml) were removed 5 minutes prior to bolus administration of either LPS (E. coil serotype 0111:b4, Difco Laboratories, USA) or saline (NaCL 0.9% w/v) and at intervals of 1 hour and 2 hours after LPS. Removed blood was replaced with equal amounts of saline.
The peak of TNF release was at the 1 hour timepoint. TNF levels were expressed in units/ml where 1 unit is the equivalent of 1 pg of mouse TNF α.
(§2) Rat serum TNF levels were measured using a mouse TNF α reference standard. The commercial ELISA kits were from Genzyme.
Test compounds were administered intraperitoneally to anaesthetised rats at a dose of 10 mg.kg^-1, 1 hour prior to LPS administration.
The results are expressed as the % inhibition of maximal TNF elevation relative to control: […]

TNF α [3] = assay: variation: infusion of compound before LPS, inhibition of TNF elevation in vivo; set-up: species or system Male CD rats; conditions: rat, infusion 1 mg/kg/hr, 15 minutes prior to LPS 500 μg.kg^-1, for 2 hours
Description: as §1, §2

| IC50 [1] [µM] | Structure (SMILES) | % Inhibition of Maximal TNF Elevation relative to control (TNF α [2]) [%] | inhibition of maximal TNF elevation relative to control (TNF α [3]) [%] |
| --- | --- | --- | --- |
| < 10 | CNC(=O)[C@H](Cc1ccc(OC)cc1)NC(=O)[C@H](CC(C)C)[C@H](C)C(=O)NO [Compound 1, 3R-(2-(4-methoxyphenyl)-1S-methylcarbamoyl-ethylcarbamoyl)-2S,5-dimethyl-hexanohydroxamic acid] | 0 | – |
| < 10 | CNC(=O)[C@H](Cc1ccccc1)NC(=O)[C@H](CC(C)C)[C@H](CSc1ccccc1)C(=O)NO [Compound 2, 2S-(phenylsulfanylmethyl)-3R-(2-phenyl-1S-methylcarbamoyl-ethylcarbamoyl)-5-methyl-hexanohydroxamic acid] | – | – |
| < 10 | CNC(=O)[C@H](Cc1ccccc1)NC(=O)[C@H](CC(C)C)[C@H](CSc1cccs1)C(=O)NO [Compound 3, 2S-(thien-2-ylsulfanylmethyl)-3R-(2-phenyl-1S-methylcarbamoyl-ethylcarbamoyl)-5-methyl-hexanohydroxamic acid] | – | – |
| – | CNC(=O)[C@H](Cc1ccc(NC(C)=O)cc1)NC(=O)[C@@H](CC(=O)NO)CC(C)C [Compound 23, 3R-(2-(4-acetamidophenyl)-1S-methylcarbamoyl-ethylcarbamoyl)-5-methyl-hexanohydroxamic acid] | 35 | – |
| – | CNC(=O)[C@H](Cc1ccc(OCC(=O)O)cc1)NC(=O)[C@H](CC(C)C)[C@H](CSc1cccs1)C(=O)NO [Compound 29, 2S-(thien-2-ylsulphanylmethyl)-3R-(2-(4-carboxymethoxyphenyl)-1S-methylcarbamoyl-ethylcarbamoyl)-5-methyl-hexanohydroxamic acid] | – | 60 |
| 10 to 90 | CNC(=O)[C@H](Cc1ccc(OC)cc1)NC(=O)[C@@H](CC(C)C)[C@H](C)C(=O)NO [Compound 69, 3S-(2(4-methoxyphenyl)-1S-methylcarbamoyl-ethylcarbamoyl)-2S,5-dimethyl-hexanohydroxamic acid] | – | – |
| 10 to 90 | CNC(=O)[C@H](Cc1ccc(OC)cc1)NC(=O)[C@@H](CC(=O)NO)CC(C)C [Compound 70, 3R-(2(4-methoxyphenyl)-1S-methylcarbamoyl-ethylcarbamoyl)-5-methyl-hexanohydroxamic acid] | 37 | – |
| – | CC(C)C[C@H](CC(=O)NO)C(=O)N[C@@H](Cc1ccccc1)C(=O)NCCCN1CCCC1=O [Compound 74, 3R-(2-phenyl-1S-[2-oxo-pyrolid-1-yl]propylcarbamoyl-ethylcarbamoyl)-5-methyl-hexanohydroxamic acid] | 28 | – |
| – | CNC(=O)[C@H](Cc1ccccc1)NC(=O)[C@H](CCc1ccccc1)CC(=O)NO [Compound 87, 3R-(2-phenyl-1S-methylcarbamoyl-ethylcarbamoyl)-5-phenyl-pentanohydroxamicacid] | 4 | – |
| – | CNC(=O)[C@@H](NC(=O)[C@@H](CC(=O)NO)CC(C)C)C(C)(C)C [Compound 88, 3R-(2,2-dimethyl-1S-methylcarbamoyl-propylcarbamoyl)-5-methyl-hexanohydroxamic acid] | 66 | – |
| – | CCOC(=O)CNC(=O)[C@H](CC(C)C)NC(=O)[C@H](CC(C)C)[C@H](CCCCN1C(=O)c2ccccc2C1=O)C(=O)NO [Compound 93, 2S-(4-phthalimido-butyl)-3R-(3-methyl-1S-ethoxycarbonylmethylcarbamoyl-butylcarbamoyl)-5-methyl-hexanohydroxamic acid] | 43 | – |
| – | CC(C)C[C@H](CC(=O)NO)C(=O)N[C@@H](Cc1ccccc1)C(=O)NCc1cccnc1 [Compound 98, 3R-(2-phenyl-1S-[pyrid-3-ylmethylcarbamoyl]-ethylcarbamoyl)-5-methyl-hexanohydroxamic acid] | 28 | – |
| – | CNC(=O)[C@H](Cc1ccccc1)NC(=O)[C@H](CC(C)C)[C@H](CS(=O)(=O)c1cccs1)C(=O)NO [Compound 99, 2S-(thien-2-ylsulfonylmethyl)-3R-(2-phenyl-1S-methylcarbamoyl-ethylcarbamoyl)-5-methyl-hexanohydroxamic acid] | 55 | – |
| > 90 | COc1ccc(C[C@H](NC(=O)[C@@H](CC(=O)NO)CC(C)C)C(=O)N(C)C)cc1 [Compound 100, 3R-(2-(4-methoxyphenyl)-1S-dimethylcarbamoyl-ethylcarbamoyl)-5-methyl-hexanohydroxamic acid] | – | – |
| > 90 | CC(C)C[C@H](CC(=O)NO)C(=O)NC1Cc2ccccc2NC1=O (stereo partly drawn) [Compound 101, 3R-(2-oxo-1,2,3,4-tetrahydro-quinoli-3-ylcarbamoyl)-5-methyl-hexanohydroxamic acid] | – | – |
